Test results from paper PMC9299485, “4‐Iodopyrimidine Labeling Reveals Nuclear Translocation and Nuclease Activity for Both MIF and MIF2” (Chemistry (Weinheim an Der Bergstrasse, Germany), 2021).
Like-named read-outs stand apart in the source and are kept apart here.

Columns and labels:
Type in all cases: biochemical
MIF [1] = target: T1, MIF (Homo sapiens, UniProt P14174); experiment: MIF tautomerase activity inhibition (4-HPP substrate, UV 306 nm)
T1 construct: His tag (C); made in house; host or cells: Escherichia coli BL21 (DE3), pET-20b(+)
T1 sequence (P14174 2-115 limits assumed): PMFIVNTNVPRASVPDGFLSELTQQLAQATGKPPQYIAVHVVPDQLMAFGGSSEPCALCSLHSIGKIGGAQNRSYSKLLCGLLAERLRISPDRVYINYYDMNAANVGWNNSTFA
Procedure: 2. Preparation of recombinant MIF and MIF2.
The detailed procedure to produce C-terminal His-tagged recombinant human MIF was reported in our previous publications.[1,4,5] rhMIF was expressed through transforming a pET-20b(+) plasmid containing the target gene into Escherichia coli BL21 (DE3) according to literature procedures.[6] Overexpression was performed and cells were collected and sonicated.
The obtained supernatant was applied to a medium pressure chromatography system (Biologic Duoflow) equipped with a His trap HP (5 mL) column with detection at 280 nm for the eluent.
The column was washed with a binding buffer containing 50 mM Tris and 10% glycerol at pH 7.4 and eluted with elution buffer containing 500 mM imidazole, 50 mM Tris, 10% glycerol at pH 7.4. The pure fractions (as judged by SDS-PAGE) were pooled and subjected to a PD-10 column (GE healthcare) that was equilibrated with PBS buffer at pH 7.4 to remove the high concentration of imidazole. The collected MIF solution was divided into 50 µL aliquots and stored at –80 °C. Purity of obtained protein was tested by SDS-PAGE and Coomassie staining.
The concentration of protein was determined using the Bradford assay.
(§1) The detailed procedure to produce recombinant human MIF2 was reported in our previous publications.[7] Gene sequences of the human MIF2 gene (Invitrogen) was adapted to bacterial expression. After subcloning into a pET20b(+) expression vector, IPTG-induced expression was performed in E.coli strain BL21(DE3). MIF2 proteins were overproduced overnight and harvested cells were resuspended and sonicated. The soluble fraction was puriﬁed using a Q sepharose column (GE Healthcare) with a gradient of NaCl. The fractions containing MIF2 were brought to 1.7 M ammonium sulfate and loaded on a phenyl sepharose column (GE Healthcare) and eluted with a gradient to 0 M ammonium sulfate in a 20 mM sodium phosphate buffer, pH 8.0. Finally, the proteins were purified by size exclusion chromatography on a Superdex75 column (GE Healthcare) in 20 mM sodium phosphate buffer, pH 8.0, with an elution volume characteristic for trimeric MIF2. The collected protein was concentrated using a VivaSpin centrifugation column with a molecular weight cut off at 5000 D a (Sartorius Stedim Biotech GmbH). Purified proteins were aliquoted, snap frozen in liquid nitrogen, and stored at –80 °C. Purity of obtained protein was tested by SDS-PAGE and coomassie staining. The concentration of protein was determined using the Bradford a ssay.
(§2) 3.1 MIF and MIF2 Inhibition
(§3) The protocol for measuring inhibition of MIF or MIF2 tautomerase enzyme activity was described previously.[5] 500 nM MIF solution (180 µL) or 100 nM MIF2 solution (180 µL) in boric acid buffer ([…], pH 6.2) was mixed with 20 mM EDTA solution (10 µL) in demineralized water. A solution of the desired compound dissolved in DMSO (10 µL) or blank DMSO (10 µL) was added. The resulting mixture was preincubated at room temperature for 10 minutes.
(§4) Subsequently, 50 µL of this mixture was mixed with 50 µL of a 1 mM 4-HPP solution for MIF or 1 mM PP solution for MIF2 in ammonium acetate buffer (50 mM, pH 6.0). Thereafter, MIF or MIF2 tautomerase activity was monitored by measuring the increase of UV absorbance at 306 nm for MIF or 300 nm for MIF2 over time. The MIF or MIF2 tautomerase activity of the mixture with blank DMSO dilution was set to 100% enzyme activity. Noncatalyzed conversion of the substrate in the mixture without MIF or MIF2 was set to 0%. The data acquired from the first 3 minutes of the measurement were used to calculate the initial conversion speed. All experiments were performed in triplicate and data processing was done using the program […]
(§5) Table S1. IC50 values (10 min) and inactivation parameters of synthesized compounds.
(§6) (1 picture or pasted object on this page, not shown here)

MIF2 [2] = target: T2, MIF2 (Homo sapiens, UniProt P30046); experiment: MIF2 tautomerase activity inhibition (PP substrate, UV 300 nm)
T2 construct: made in house; host or cells: E. coli BL21(DE3), pET20b(+)
T2 sequence (P30046 2-118 limits assumed): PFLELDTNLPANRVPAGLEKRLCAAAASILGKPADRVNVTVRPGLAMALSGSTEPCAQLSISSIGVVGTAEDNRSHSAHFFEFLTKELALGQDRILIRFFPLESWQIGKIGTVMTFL
Procedure: 2. Preparation of recombinant MIF and MIF2. […]
Purity of obtained protein was tested by SDS-PAGE and Coomassie staining. […]
as §1, §2, §3, §4, §5, §6

MIF [3] = target: T1, MIF; experiment: Kitz-Wilson inactivation kinetics on MIF tautomerase
Procedure: (§7) In order to derive the kinetic parameters for inactivation of MIFand MIF2, we employed the approach described by Kitz and Wilson. Briefly, four different concentrations of the inhibitor with four different pre-incubation times were selected. The assay conditions are described above with the difference in incubation time.
(§8) For the data analysis, the pre-incubation times for the different concentration of the inhibitor versus the remaining enzyme activity were plotted, so from the linear regression the slope of each concentration of the probe was obtained ( Table S3). Then the 1/slope versus 1/[inhibitor] were plotted (Figure 4) and from the linear regression line ki was derived from the 1/y -intercept and derived from the slope times the ki as described by Kitz and Wilson.
For example, for the probe 8 the equation is: Y = 7,476*X + 5,069
So, the kinact and the KI values are: kinact =1/5,069 =0.20 min-1
(also on this page, place not known: -1 0 1 2 3 0 50 100 log [FM011] (µM) DDT (%) -1 0 1 2 3 0 50 100 log [ZP308] (µM) DDT activity (%) 0.0 0.5 1.0 1.5 2.0 0 50 100 log [ZP307] (µM) DDT activity (%) 1.4 1.6 1.8 2.0 2.2 0 50 100 log [FM031] (µM) DDT activity (%) pre -incubation cond itions pre -incubation activity o f (Table 1/y-intercept) […]
(§9) Table S4. Kinetics studies results.
(§10) Time-dependent inhibition Kitz and Wilson curve […]
ln (MIF tautomerase activity %)
Time-dependent inhibition on MIF Y = 7,476*X + 5,069
Time-dependent inhibition on MIF Y = 12,07*X + 4,234 […]
ln (MIF2 tautomerase activity %)
(§11) Time-dependent inhibition on MIF2 Y = 299,5*X + 11,14 […]

MIF2 [4] = target: T2, MIF2; experiment: Kitz-Wilson inactivation kinetics on MIF2 tautomerase; conditions: Kitz-Wilson analysis, ±SD, n=3
Procedure: as §7, §8
For example, for the probe 8 the equation is: Y = 7,476*X + 5,069 […]
as §9, §10
ln (MIF tautomerase activity %) […]
as §11

MIF [5] = target: T1, MIF; experiment: hgDNA cleavage by MIF in presence of tautomerase inhibitors; conditions: Figure S3/S7
Procedure: (§12) 7. Nuclease activity of MIF and MIF2.
(§13) Human genomic DNA was obtained from RPE-1 cells by DNA extraction following the protocol described in literature.[10] The nuclease assays were conducted by following the procedure described previously.[8] hgDNA (200 ng/reaction) was incubated with MIF or MIF2 in final concentration of 0.62 -20 µM as indicated in 10Mm Tris-HCl buffer (pH 7.0) containing 10mM MgCl2 (B and C) or specific buffer as indicated at 37°C for two hours. The reaction was terminated with loading buffer containing 10mM EDTA and incubation on ice. The human genomic DNA samples were immediately separated on a 1% agarose gel containing SYBR Safe (ThermoFisher) in 0.5 X TBE buffer with initial switch time of 1.5 s and a final switch time of 3.5 s for 12 hours at 6 V/cm. DNA was further detected by chemiluminescence.
(§14) Figure S7. hgDNA cleavage activity of MIF and MIF2. (A) The MIF2 nuclease activity is Mg 2+- […]
(§15) BITC is a covalent inhibitor that can form covalent bond with the N-terminal proline.[11] (C) […]
as §6

MIF2 [6] = target: T2, MIF2; experiment: hgDNA cleavage by MIF2 in presence of tautomerase inhibitors; conditions: Figure S3/S7
Procedure: as §12, §13, §14, §15, §6

In the case of O=C(NCCNc1ccc([N+](=O)[O-])c2nonc12)c1ccc(-c2cc(I)ncn2)cc1 [Compound 8], the IC50 (MIF [1]; Table 2, 10 min pre-incubation, ±SD, n=3, read-out: IC50 MIF) is reported as 270 ± 85 nM, the IC50 (MIF [1]; approximate, read-out: IC50 on MIF) is reported as about 200 nM and the “improvement of potency for MIF2 inhibition compared to parental inhibitor 2” value (MIF2 [2]) is reported as 2–6 factor. For the same compound, the IC50 (MIF2 [2]; Table 2, 10 min pre-incubation, ±SD, n=3, read-out: IC50 MIF2) was 20000 ± 2200 nM, the “KI on MIF relative to IC50” value (MIF [3]; KI higher than IC50) was “about 10 times” and the KI (inactivation) (MIF [3]; Kitz-Wilson analysis, ±SD, n=3, read-out: KI MIF (inhibition constant)) was 1500 ± 200 nM. The kinact (MIF [3]; Kitz-Wilson analysis, ±SD, n=3, read-out: kinact MIF (rate of enzyme inactivation) (converted)) was 0.00333 s⁻¹, the “kinact MIF2 (rate of enzyme inactivation)” value (MIF2 [4]) was 0.088 ± 0.012 min⁻¹ and the KI (inactivation) (MIF2 [4]; read-out: KI MIF2 (inhibition constant)) was 26000 ± 3200 nM. The kinact (MIF2 [4]; read-out: kinact MIF2 (rate of enzyme inactivation)) was 0.001 to 0.0015 s⁻¹, the “effect on DNA cleavage by MIF” value (MIF [5]) was “could not rescue DNA cleavage” and the “effect on DNA cleavage by MIF2” value (MIF2 [6]) was “could not rescue DNA cleavage”.
